# Patent US7659240B2, “Mucin immobilized chromatography” (Vertex Pharmaceuticals Incorporated, priority 2002, dated 2010)
# Where “and” joins values, the source holds several entries; their conditions need not be identical. Equal values may be shown once. Where a name gives a salt, the structure may show the parent alone. Read-outs that look alike come from different tables or passages of the source.
# Key:
# [1] = test system: mucin immobilized to PC IAM particles; assay: pH and mucin layer thickness dependence of partition ratio on MIC columns (1:2 and 2:1); details: for (1:2) k′ (pH 3) / (1:2) k′ (pH 5) / (1:2) k′ (pH 7): column 1:2 mucin to PC IAM, 0.32 μm mucin layer; for (1:2) k′ (pH 3) / (2:1) k′ (pH 3): mobile phase pH 3; for (1:2) k′ (pH 5) / (2:1) k′ (pH 5): mobile phase pH 5; for (1:2) k′ (pH 7) / (2:1) k′ (pH 7): mobile phase pH 7; for (2:1) k′ (pH 3) / (2:1) k′ (pH 5) / (2:1) k′ (pH 7): column 2:1 mucin to PC IAM, 0.36 μm mucin layer; for k′MIC (1:2): column 1:2, 0.32 μm; for k′MIC (1:2) / k′MIC (2:1): pH 7, Table 9; for k′MIC (2:1): column 2:1, 0.36 μm
# [2] = test system: mucin immobilized to IAM.PC.DD2; assay: HPLC on MIC column (2:1 mucin to PC IAM particles): retention time, k′MIC, derived Km and Peff MIC; details: for k′MIC / Retention Time: MIC column 2:1 mucin:IAM, MPS pH 7.4; for Retention Time: isocratic 0.3 ml/min; for Dm: membrane diffusion coefficient calculated from molecular weight; for K′MIC: MIC 2:1
# Description: [formula] where Dm is the membrane diffusion coefficient of the solute, Km is the membrane equilibrium constant, and L is the membrane thickness (Stein, W., Transport and Diffusion Across Cell Membranes, Academic Press, Orlando, Fla. (1986)). […] Since molecular weight, MW, is proportional to molecular size, Dm may also written as,
# [formula] Thus, Dm can be calculated from the molecular weight. Furthermore, Km is calculated by the following equation, Km−(Vm/Vs)k′, [4] where Vm is the volume of the mobile phase, Vs is the internal volume of the stationary phase, and k′ is the partition ratio (Pidgeon and Ong, Chemtech. June, 38-48 (1995)). The partition ratio is determined by the equation, k′−(tr−to)/to, [5] where tr is the retention time of the drug and to is the void volume of the column. Both tr and to can be experimentally determined in order to obtain k′.
# Equation 2 can be used to determine Km for a given MIC medium. Both Dm and L are known from the discussion above, and Peff can be calculated for various drugs having known in vivo absorption. For example, a number of drug permeability coefficients, Peff, derived from in vivo experiments are listed in literature. […] See Example 5 below.
# [3] = cited from earlier work
# [4] = single-pass perfusions, cited from earlier work
Structure (SMILES),(1:2) k′ (pH 3) [1],(1:2) k′ (pH 5) [1],(1:2) k′ (pH 7) [1],(2:1) k′ (pH 3) [1],(2:1) k′ (pH 5) [1],(2:1) k′ (pH 7) [1],k′MIC [2],Retention Time [2],Dm [2],% Absorbed ([3]; Table 5) [%],% Absorbed ([3]; Table 6) [%],k′MIC (1:2) [1],k′MIC (2:1) [1],Peff Loc-I-Gut (×10^−4 cm/s) ([4]; Table 5),Peff Loc-I-Gut (×10^−4 cm/s) ([4]; Table 6),Peff Loc-I-Gut (×10^−4 cm/s) ([4]; Table 9),K′MIC ([2]; Table 5),"Peff MIC (×10^−4 cm/s) ([2]; determined by linear equation, Table 5)"
Nc1nc2c(ncn2COCCO)c(=O)[nH]1 [Acyclovir],25.67,15.67,25.67,20.43,20.43,24.00,33.5714,2.4,0.0044,,,,,,,,,
C=CCc1ccccc1OCC(O)CNC(C)C (stereo not shown) [Alprenolol],54.00,64.00,42.33,43.29,49.00,82.33,46.1429,3.3,0.0035,,,,,,,,,
CC(C)NCC(O)COc1ccc(CC(N)=O)cc1 (stereo not shown) [Atenolol],39.00,39.00,39.00,29.00,31.86,37.33,,,,50,50,39,37,0.15 ×10^−4 cm/s,0.15 ×10^−4 cm/s,0.2 ×10^−4 cm/s,,
Cn1c(=O)c2c(ncn2C)n(C)c1=O [Caffeine],44.00,44.00,45.67,34.71,34.71,39.00,37.5714,2.7,0.0051,,,,,,,,,
CN/C(=N/CCSCc1nc[nH]c1C)NC#N [Cimetidine],25.67,29.00,44.00,17.57,23.29,35.67,,,0.0039 and 0.0040,,,,,,,,,
CN(CC(=O)O)C(=N)N [Creatine],39.00,39.00,39.00,20.43,23.29,32.33,30.4286,2.2,0.0088,0,,25.7,24,0.3 ×10^−4 cm/s,,0.3 ×10^−4 cm/s,30.43,−0.22 ×10^−4 cm/s
NS(=O)(=O)c1cc(C(=O)O)c(NCc2ccco2)cc1Cl [Furosemide],40.67,37.33,35.67,30.43,27.57,25.67,,,,60,,35.7,25.7,0.3 ×10^−4 cm/s,,0.3 ×10^−4 cm/s,,
CC(C)Cc1ccc(C(C)C(=O)O)cc1 (stereo not shown) [Ibuprofen],,,,,,,53.2857,3.8,0.0044,,,,,,,,,
CC(C(=O)O)c1cccc(C(=O)c2ccccc2)c1 (stereo not shown) [Ketoprofen],25.67,29.00,82.33,20.43,27.57,70.67,52.5714,3.8,0.0039,,,82.3,70.7,,,,52,
CC(CCc1ccccc1)NCC(O)c1ccc(O)c(C(N)=O)c1 (stereo not shown) [Labetalol],24.00,24.00,32.33,79.00,90.43,132.33,53.2857,3.8,0.0027,,,,,,,,,
OC[C@@H](O)[C@@H](O)[C@H](O)[C@H](O)CO [Mannitol],,,,,,,33.4286,2.4,0.0055,,,,,,,,,
COc1ccc2cc([C@H](C)C(=O)O)ccc2c1 [Naproxen],,,,,,,,,,100,100,,,8.0 ×10^−4 cm/s,8.0 ×10^−4 cm/s,8.0 ×10^−4 cm/s,,
CC(COc1ccccc1)N(CCCl)Cc1ccccc1 (stereo not shown) [Phenoxybenzamine HCl],20.67,29.00,29.00,20.43,17.57,15.67,,,,,,,,,,,,
